Columns and labels:
Assay in all cases: relative viability (nuclei count vs DMSO), 5 days (fraction); higher = more cells survive
[1] = compound: Cc1ccc(C(=O)Nc2ccc(CN3CCN(C)CC3)c(C(F)(F)F)c2)cc1C#Cc1cnc2cccnn12 [Ponatinib] + Cc1nc(Nc2ncc(C(=O)Nc3c(C)cccc3Cl)s2)cc(N2CCN(CCO)CC2)n1 [Dasatinib] (partner 0.075 µM)
How it was run: (§1)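 Medians of duplicate plates are given as relative viability. That measure is the nuclei count in treated wells divided by the count in vehicle wells. Counts were taken on 4× images of lung cancer cell lines in 1536-well plates, 5 days after pin-tool dosing the day after seeding with one drug alone or a fixed anchor-drug dose plus five library-drug doses (not always all listed) in √10 steps.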

[2] = compound: Cc1ccc(Nc2nccc(N(C)c3ccc4c(C)n(C)nc4c3)n2)cc1S(N)(=O)=O [Pazopanib] + COc1cccc2cc(-c3nc([C@H]4CC[C@H](C(=O)O)CC4)n4ncnc(N)c34)[nH]c12 [OSI-027] (partner 0.5 µM)
How it was run: as §1

[3] = compound: Cc1ccc(Nc2nccc(N(C)c3ccc4c(C)n(C)nc4c3)n2)cc1S(N)(=O)=O [Pazopanib] + Cc1nc(NC(=O)N2CCC[C@H]2C(N)=O)sc1-c1ccnc(C(C)(C)C(F)(F)F)c1 [Alpelisib] (partner 2 µM)
How it was run: as §1

[4] = compound: Cc1ccc(Nc2nccc(N(C)c3ccc4c(C)n(C)nc4c3)n2)cc1S(N)(=O)=O [Pazopanib] + O=C(CCCCCCC(=O)Nc1ccccc1)NO [Vorinostat] (partner 1 µM)
How it was run: as §1

| Cell Line | relative viability ([1]; first compound 0.002 µM) | relative viability ([1]; first compound 0.006325 µM) | relative viability ([1]; first compound 0.06325 µM) | relative viability ([1]; first compound 0.2 µM) | relative viability ([2]; first compound 0.01 µM) | relative viability ([2]; first compound 0.03162 µM) | relative viability ([2]; first compound 0.1 µM) | relative viability ([2]; first compound 0.3162 µM) | relative viability ([2]; first compound 1 µM) | relative viability ([3]; first compound 0.01 µM) | relative viability ([3]; first compound 0.03162 µM) | relative viability ([3]; first compound 0.1 µM) | relative viability ([3]; first compound 0.3162 µM) | relative viability ([3]; first compound 1 µM) | relative viability ([4]; first compound 0.01 µM) | relative viability ([4]; first compound 0.03162 µM) | relative viability ([4]; first compound 0.1 µM) | relative viability ([4]; first compound 0.3162 µM) | relative viability ([4]; first compound 1 µM) |
| --- | --- | --- | --- | --- | --- | --- | --- | --- | --- | --- | --- | --- | --- | --- | --- | --- | --- | --- | --- |
| H3255 | 0.326 | 0.317 | 0.387 | 0.367 | 0.512 | 0.535 | 0.638 | 0.606 | 0.752 | 0.612 | 0.743 | 0.833 | 0.695 | 0.741 | 0.709 | 0.841 | 0.701 | 0.901 | 0.793 |
| NCI-H650 | 0.37 | 0.456 | 0.492 | 0.411 | 0.464 | 0.523 | 0.517 | 0.544 | 0.482 | 1.06 | 1.35 | 1.19 | 1.11 | 1.08 | 0.381 | 0.466 | 0.398 | 0.364 | 0.485 |
| NCI-H2023 | 0.494 | 0.522 | 0.807 | 0.409 | 0.417 | 0.425 | 0.35 | 0.42 | 0.536 | 0.58 | 0.567 | 0.62 | 0.57 | 0.591 | 0.551 | 0.712 | 0.745 | 0.637 | 0.827 |
| NCI-H23 | 0.667 | 0.748 | 0.867 | 0.726 | 0.559 | 0.617 | 0.648 | 0.643 | 0.637 | 0.676 | 0.73 | 0.738 | 0.693 | 0.919 | 0.431 | 0.641 | 0.628 | 0.661 | 0.782 |
| NCI-H2170 | 0.46 | 0.591 | 0.561 | 0.491 | 0.728 | 0.695 | 0.719 | 0.703 | 0.655 | 0.73 | 0.794 | 0.877 | 0.646 | 0.787 | 0.624 | 0.848 | 0.877 | 0.796 | 0.829 |
| NCI-H1944 | 0.218 | 0.21 | 0.221 | 0.202 |  | 0.422 | 0.46 | 0.441 | 0.48 | 0.751 | 0.838 | 0.839 | 0.863 | 0.982 | 0.487 | 0.557 | 0.583 | 0.604 | 0.648 |
| NCI-H596 | 0.505 | 0.61 | 0.479 | 0.373 |  | 0.74 | 0.568 | 0.879 | 0.632 | 0.473 | 0.479 | 0.487 | 0.457 | 0.513 | 0.598 | 0.634 | 0.578 | 0.691 | 0.642 |
| NCI-H520 | 0.205 | 0.201 | 0.162 | 0.139 | 0.271 | 0.268 | 0.259 | 0.301 | 0.262 |  | 1.04 | 0.884 | 0.873 | 0.816 | 0.678 | 0.717 | 0.742 | 0.581 | 0.549 |
| EKVX | 0.56 | 0.624 | 0.502 | 0.483 | 0.664 | 0.741 | 0.642 | 0.691 | 0.788 | 0.726 | 0.887 | 0.923 | 0.896 | 1.03 | 0.674 | 0.731 | 0.79 | 0.742 | 0.604 |

From the supplement of paper PMC10307832
